Assay results from US20110039763A1, “TARGETED ANTIMICROBIAL MOIETIES” (C3 JIAN, INC., priority 2009, published 2011).

How the values were obtained:
S. mutans UA140 biofilms = experiment: Photodynamic antimicrobial assay, single-species biofilm; type: cell-based, Streptococcus mutans; settings: 24 h S. mutans biofilm; 5 μM, no light
Procedure: To evaluate C16-RB against monoculture biofilms, S. mutans UA140 was grown overnight in TH prior to inoculation for biofilm formation. For biofilms, 1:5000 dilution of overnight culture was made into TH with 1% sucrose in 2 mL centrifuge tubes (200 μL volume) and grown 24 h under anaerobic conditions. After incubation, biofilms were treated for 5 min with 5 or 25 μM C16-RB or 5 μM RB in 1×PBS, or PBS alone, followed by removal of supernatant and exposure to 5 min blue light (emission 400-550 nm, power 400 mW/cm^2) from an Astralis 7 (Ivoclar Vivodent, Austria) handheld LED commonly used as a dental curing light. The light source was suspended 4 cm from the tube bottom (even with the mouth of the tube). A duplicate set of samples were left covered to serve as dark controls. After treatment, biofilms were mechanically disrupted and plated to determine cfu/mL.
After synthesis, the basic photosensitization potential of C16-RB was assessed by challenging mature single-species S. mutans biofilms (grown 24 h) with C16-RB or unmodified RB, followed by blue emission from a dental curing light.

[1] = test system: mixed biofilms of S. oralis, S. gordonii, S. mitis, S. sanguinis, S. salivarius, and S. mutans JM11; experiment: Photodynamic antimicrobial assay, multispecies biofilm; type: cell-based
Procedure: To gauge C16-RB selectivity for S. mutans, similar assays were conducted against multispecies biofilms. Mixed biofilms were seeded by diluting (1:5000) a mixture of equal parts S. oralis, S. gordonii, S. mitis, S. sanguinis, S. salivarius, and S. mutans JM11 (made from overnight cultures) into TH with 1% sucrose, 1% glucose, and 1% mannose. Biofilms were incubated and treated as described above with the addition of vitamin C or potassium gluconate. After the addition of agent and 5 min incubation, biofilms were washed 1× with 1×PBS prior to light exposure. After PDT and biofilm disruption, survivors were plated on TH, and TH supplemented with 800 μg/mL spectinomycin, which allowed for quantitation of surviving total oral streptococci and surviving S. mutans, respectively.
C16-RB was next evaluated for selectivity in mixed cultures containing S. mutans and non-cariogenic oral streptococci that compete for the same niche on the tooth surface. We utilized mixed biofilms of S. mutans transformed with spectinomycin resistance (strain JM11, Merritt, et al., 2005), plus S. oralis, S. gordonii, S. mitis, S. sanguinis, and S. salivarius. The mixed cultures were grown 24 and then treated with RB or C16-RB as indicated, plus potassium gluconate to minimize killing of untargeted bacteria by reducing the superoxide-producing activity of the free C16-RB not bound to S. mutans. […]

[2] = test system: BHK-21 (ATCC CRL-10) fibroblasts; experiment: Cytotoxicity (Promega CellTiterGlo assay); type: cell-based, hamster
Procedure: Streptococcus oralis ATCC 10557, Streptococcus gordonii (Challis), Streptococcus sanguinis (NY101), Streptococcus mitis ATCC 903, Streptococcus salivarius ATCC 13419 and S. mutans wild-type UA140 and JM11 (spectinomycin-resistant) strains were grown in Todd-Hewitt (TH) broth 37° C. in an anaerobic atmosphere of 80% N2, 10% CO2, and 10% H2. BHK-21 (ATCC CRL-10) fibroblasts were propagated in DMEM with 10% FBS, 1 mM sodium pyruvate, 100 units/mL penicillin G, and 100 μg/mL streptomycin at 37° C. with 5% CO2. Cells were detached with 0.25% trypsin and subcultured as recommended by the supplier.
The effect of RB and C16-RB on human fibroblasts was ascertained by utilizing the Promega CellTiterGlo assay, as described by the manufacturer. Briefly, fibroblasts were grown to confluence, detached, and seeded to 5,000 cells per well in a 96-well opaque walled, clear bottom 96-well plate (Nunc International). For long-term dark toxicity, cells were allowed to attach to for 18 h before the culture medium was replaced with medium plus serially-diluted RB or C16-RB (200 μM to 390 nM) or medium alone. After 18-24 h, equal volume Cell Titer Glo reagent was added to each well and mixed. Luciferace activity was then quantified to measure cell viability (Varian Fluorometer in Biolumenescence mode). To measure cytotoxicity after RB or C16-RB light exposure, cells were seeded at ˜10,000 cells per well and allowed to attach for 4 h. Cell growth medium was then replaced with RB or C16-RB containing medium, prior to exposure (a single well at a time) with blue light (400 mW/cm^2) suspended ˜3 cm from the well bottom. After exposure, cultures were disrupted with Cell Titer Glo and luciferase activity quantitated as above.

MRSA = experiment: MIC test / antimicrobial activity, MRSA; type: cell-based, Methicillin-resistant Staphylococcus aureus
Procedure: (§1) The active AMPs, STAMPs and the like can be identified and/or validated using an in vitro screening assay.
(§2) It will be appreciated that other assays as are well known in the art or that will become apparent to those having skill in the art upon review of this disclosure may also be used to identify active AMPs. Such assays include, for example, the assay described in Lehrer et al. (1988) J. Immunol.
(§3) Peptides were evaluated for basic antimicrobial activity by broth microdilution, as described previously (Eckert et al. (2006) Antimicrob Agents Chemother., 50: 3651-3657; Eckert et al. (2006) Antimicrob Agents Chemother., 50: 1480-1488). Briefly, ˜1×10^5 cfu/mL bacteria were diluted in TH (S. mutans), or Mueller-Hinton (MH) broth (all other organisms) and distributed to 96-well plates. Serially-diluted (2-fold) peptides were then added and the plates incubated at 37° C. for 18-24 h. […] All experiments were conducted 10 times.

T. rubrum = experiment: MIC test / antimicrobial activity, T. rubrum; type: cell-based, Trichophyton rubrum
Procedure: as §1, §2, §3

A. niger = experiment: MIC test / antimicrobial activity, A. niger; type: cell-based, Aspergillus niger
Procedure: as §1, §2, §3

B. subtilis = experiment: MIC test / antimicrobial activity, B. subtilis; type: cell-based, Bacillus subtilis; settings: B. subtilis
Outline: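 Broth microdilution with ~1×10^5 cfu/mL organisms in TH broth (S. mutans) or Mueller-Hinton broth (other organisms). Peptides added as 2-fold serial dilutions, then incubated 18-24 h at 37° C. Experiments run 10 times.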

S. epidermidis = experiment: MIC test (broth microdilution) / antimicrobial activity, S. epidermidis; type: cell-based, Staphylococcus epidermidis; settings: S. epidermidis
Procedure: as §1, §2, §3

C. albicans = experiment: MIC test / antimicrobial activity, C. albicans; type: cell-based, Candida albicans
Procedure: as §1, §2, §3

E. faecalis = experiment: MIC test / antimicrobial activity, E. faecalis; type: cell-based, Enterococcus faecalis
Procedure: as §1, §2, §3

microorganisms [3] = experiment: Peptide activities: targeting/binding, antimicrobial, growth or phenotype altering (Tables 7, 8); type: cell-based; settings: peptides having multiple activities
microorganisms [4] = experiment: Morphology, biofilm and growth disrupting peptides (Table 5); type: cell-based; set-up: key: A: Peptide aggregates; B: Less hyphal formation; Clumps; Diffuse clumps and small polyps; F: Diffuse growth; H: Thin; I: Growth inhibition; Microcolony formation; Rippled; Small polyps; Thick; W: Halo formation on top, microlonies on bottom
Text: In certain embodiments peptides that induce alterations in phenotype or other biological activities can also be used as antimicrobial effector moieties.

O=C1OC2(c3cc(I)c(O)c(I)c3Oc3c2cc(I)c(O)c3I)c2c(Cl)c(Cl)c(Cl)c(Cl)c21 [RB, rose bengal]
decrease in cfu/mL, dark control (S. mutans UA140 biofilms): appreciable decreases in cfu/mL were not observed
selectivity of photodynamic antimicrobial activity ([1]; blue light illumination, FIG. 22): strong indiscriminant photodynamic antimicrobial effects
ratio of surviving S. mutans:non-cariogenic streptococci cfu ([1]; potassium gluconate, blue light): ~1
IC50 ([2]; 5 min w/blue light): 40 µM
IC50 (μM) BHK ([2]; 5 min w/blue light): light-dependent toxicity
IC50 ([2]; 24 h dark): 90 µM

MRFGSLALVAYDSAIKHSWPRPSSVRRLRM [PF-672]
Organism MIC (μM) (MRSA): MRSA, 1.56 μM
Organism MIC (μM) (T. rubrum): T. rubrum, 0.78 μM
Organism MIC (μM) (A. niger): A. niger, 3 μM
Organism MIC (μM) (B. subtilis): B. subtilis, 0.78 μM
Organism MIC (μM) (S. epidermidis): S. epidermidis, 0.39 μM
Organism MIC (μM) (C. albicans): C. albicans, 1.56 μM
Organism MIC (μM) (E. faecalis): E. faecalis, 3.13 μM
Activities (microorganisms [3]): G B M
Organism, effect (microorganisms [4]; B. subtilis): B. subtilis (I)
Organism, effect (microorganisms [4]; C. albicans): C. albicans (I)
Organism, effect (microorganisms [4]; C. jeikeium): C. jeikeium (R)
Organism, effect (microorganisms [4]; E. faecalis): E. faecalis (I)
Organism, effect (microorganisms [4]; MRSA): MRSA (I)
Organism, effect (microorganisms [4]; S. epidermidis): S. epidermidis (I)
Organism, effect (microorganisms [4]; S. pneumoniae): S. pneumoniae (I)
